Read-outs that look alike come from different tables or passages of the source.
Experiments:
[1] = test system: HBV DNA in HepG2.2.15 cells; experiment: In vitro anti-HBV activity assay (HBV DNA in HepG2.2.15 supernatant, qPCR); assay type: cell-based; conditions: Hepatitis B virus, HepG2.2.15, 192 h; inhibition of HBV DNA in supernatant, 8 days culture
Protocol: 1) 100 μL of HepG2.2.15 cells were seeded at a number of 1.2×10^5 cells per well into a 96-well cell culture plate, and then the cells were cultured in a 37° C. incubator with 5% carbon dioxide (CO2) overnight. On day 2, the compounds to be tested were diluted with DMSO in 3-fold gradient to eight concentrations in total. Then the compounds were diluted 100-fold with culture medium, and 100 μL of the diluted compounds were taken and added to the cell-containing plate in a final volume of 200 μL, and the final concentration of DMSO was 0.5%, and two duplicate wells were used. The cells were cultured in a 37° C. incubator with 5% CO2 for 3 days. On day 5, the solutions in the cell culture plate were replaced with fresh culture medium containing the same concentrations of compounds. When culture was performed for 8 days, cell culture plate supernatant was collected for the extraction of HBV DNA.
2) Detection of HBV DNA by real-time quantitative PCR: the total DNA in the supernatant was extracted with QIAamp 96 DNA Blood Kit, and the content of HBV DNA was detected by quantitative PCR using HBV specific primers and probes. 20 μL PCR pre-mixed solution and 5 μL HBV DNA sample or HBV plasmid standard sample were added to a quantitative PCR plate for reaction. The HBV plasmid standard sample was diluted in 10-fold gradient to seven concentrations from 10^7 to 10 copies/μL. The quantitative PCR reaction procedure was as follows: pre-denaturation at 95° C. for 10 minutes; denaturation at 95° C. for 15 seconds, reaction at 60° C. for 1 minute, and this cycle was repeated 40 times. The inhibition rate of each well against HBV DNA was calculated according to the following equation, and the inhibition rate data of the compounds were subjected to a non-linear fitting analysis using GraphPad Prism software to obtain EC50 values of the compounds. HBV DNA inhibition rate %=(1−copy number of HBV DNA of the sample/copy number of HBV DNA of DMSO control)*100% The assay results are shown in Table 1 below.

HBV [2] = experiment: In vivo activity assay of HBV DNA in mouse plasmid model of tail vein high-pressure injection (Example 23); design: species or system female BABL/c mice; conditions: 60 mg/Kg, gavage
Protocol: (§1) The purpose of this study was to test the inhibitory effect of the compound (Example 23) against HBV in mice through a mouse model of high-pressure tail vein injection. In this experiment, female BABL/c mice were used, and the mice were 6-7 weeks old. The HBV plasmid DNA was extracted by using pAAV2-HBV 1.3 mer with Qiagen EndoFree Plasmid Giga kit at a concentration of 1000 ng/μL. The resulting solution was diluted with normal saline before use and stored at 4° C. until use.

[3] = Pharmacokinetic study for mouse (single intravenous or gavage administration); assay type: in vivo, mice; conditions: for clearance / half-life / AUC(0-t) / Vd / Cmax / Tmax: plasma; for AUC(0-t): read-out: AUC0-24 h; for Vd: read-out: Vdss
Protocol: This experiment aims to evaluate the pharmacokinetic behavior of the compounds after a single intravenous or gavage administration in mice. As for the intravenous administration, the compounds were formulated into 0.5 mg/mL clear solutions, vehicle: 5% DMSO/5% 12-hydroxy stearate (solutol)/90% water; as for the gavage administration, the compounds were formulated into 2 mg/mL suspensions, vehicle: 0.5% sodium carboxymethylcellulose/0.2% Tween 80/99.3% water.
The concentrations of the compounds in plasma were determined by high-performance liquid chromatography-tandem mass spectrometry (LC-MS/MS). The retention time, chromatogram acquisition and integration of the chromatograms of the compounds and the internal standard (diclofenac) were processed using the software Analyst (Applied Biosystems), and data statistics were processed using the software Watson LIMS (Thermo Fisher Scientific) or Analyst (Applied Biosystems). The concentration unit of the analyte in the sample is ng/mL, 3 significant digits were retained, and all the values represented by percentages (e.g., % deviation and % coefficient of variation, etc.) have one decimal place. Each calibration curve contains at least 6 concentration levels. The calibration standard samples were formulated using stock solutions from different sources from the quality control samples. If the deviation between the calculated concentration of a calibration standard sample and the indicated value exceeds ±15.0% (the lower limit of quantitation exceeds ±20.0%), such standard sample should be excluded in regression analysis. The excluded calibration standard samples should be less than 25%, and each calibration curve contains at least 6 calibration standard samples that meet the acceptable standard. If the calibration standard samples at the lower and upper limits of quantification need to be excluded, the upper and lower limits of quantification of this batch of analytes will be increased and decreased accordingly.
Plasma concentrations were processed using a non-compartmental model of the WinNonlin™ Version 6.3 (Pharsight, Mountain View, Calif.) pharmacokinetic software, and pharmacokinetic parameters were calculated using the linear logarithmic trapezoidal method. The pharmacokinetic parameters to be calculated include, but are not limited to (if the data is not allowed), T1/2, Vdss, CL, AUC0-24h of the intravenous group; Cmax, Tmax, AUC0-24h and bioavailability (F %) of the oral gavage group.

HBV [4] = experiment: In vivo activity assay of HBV DNA in mouse plasmid model of tail vein high-pressure injection (Example 6); design: species or system female BABL/c mice; conditions: 30 mg/Kg, gavage, twice a day
Protocol: as §1, with “6)” for “23)”
100 μL of whole blood was taken from each mouse approximately 4 hours after the first administration On days 1, 3, and 5, and the whole blood was collected into a tube containing sodium heparin, centrifuged at 4° C. at 7000 rpm for 10 minutes, and the supernatant was taken to obtain plasma. The plasma was stored in a refrigerator at −80° C. and transported to an analytical laboratory for testing under dry ice freezing condition.
1) DNA in plasma was extracted, and the experimental procedure was carried out with reference to the instruction for QIAamp 96 DNA Blood Kit.
A qPCR reaction mixture was formulated (see Table 6). The qPCR reaction mixture, sample and standard sample were added to a 96-well reaction plate. The standard sample was plasmid DNA containing the full-length sequence of type D HBV. The standard sample was diluted from 10^7 copies/μL in 10-fold gradient to successively obtain 10^6˜10^1 copies/μL of DNA standard samples. PCR reaction: 95° C., 10 min; 95° C., 15 seconds; 60° C., 1 minute; 40 cycles.
Liver tissue was taken and homogenized with a tissue grinder. After centrifugation, the supernatant was transferred to a new centrifuge tube and digested with proteinase K digestion solution for 3 hours. The resulting mixture was cooled, and then RNAse A was added thereto to incubate for 30 minutes. The RNase A-treated mixture was extracted twice with an equal volume of phenol chloroform isoamyl alcohol to remove residual protein. The supernatant was transferred to a new centrifuge tube, and isopropanol was added thereto to precipitate the DNA. The DNA precipitation was washed twice with 70% ethanol. The precipitation was then air-dried and TE (10 mM Tris-HCl, pH 8.0, 1 mM EDTA) was added thereto to dissolve the DNA.
The DNA concentrations were measured with Nanodrop and adjusted to 10 ng/μL for all the samples. 5 μL samples were added to the quantitative PCR reaction system for quantitative PCR.
HBV DNA content=DNA content detected by HBV primer-DNA content detected by pAAV2 primer.

Compound: C[C@H]1Cc2noc(-c3nccs3)c2CN1C(=O)Nc1cc(F)c(F)c(F)c1 [Example 16]
- EC50 [1]: 24.6 nM

Compound: C[C@H]1Cc2noc(-c3ncccn3)c2CN1C(=O)Nc1cc(F)c(F)c(F)c1 [Example 25]
- EC50 [1]: 14.9 nM

Compound: COc1ccc(-c2onc3c2CN(C(=O)Nc2cc(F)c(F)c(F)c2)[C@@H](C)C3)cc1 [Example 9]
- EC50 [1]: 10.5 nM

Compound: C[C@H]1Cc2noc(-c3ncccn3)c2CN1C(=O)Nc1ccc(F)c(C#N)c1 [Example 23]
- Log HBV DNA mean value (HBV [2]; liver tissue after 7 days of administration, BID, solvent control 6.01): 4.50 copy number/μL
- Log HBV DNA mean value (HBV [2]; liver tissue after 7 days of administration, QD, solvent control 6.01): 5.18 copy number/μL
- Log HBV DNA mean value (HBV [2]; plasma, Day 1, BID, solvent control 2.03): 1.94 copy number/μL
- Log HBV DNA mean value (HBV [2]; plasma, Day 1, QD, solvent control 2.03): 2.10 copy number/μL
- Log HBV DNA mean value (HBV [2]; plasma, Day 3, BID, solvent control 4.47): 3.02 copy number/μL
- Log HBV DNA mean value (HBV [2]; plasma, Day 3, QD, solvent control 4.47): 3.15 copy number/μL
- Log HBV DNA mean value (HBV [2]; plasma, Day 5, BID, solvent control 4.76): 2.94 copy number/μL
- Log HBV DNA mean value (HBV [2]; plasma, Day 5, QD, solvent control 4.76): 3.92 copy number/μL
- Log HBV DNA mean value (HBV [2]; plasma, Day 7, BID, solvent control 3.53): 2.14 copy number/μL
- Log HBV DNA mean value (HBV [2]; plasma, Day 7, QD, solvent control 3.53): 3.19 copy number/μL
- F ([3]; oral gavage, 3 mg/Kg): 55.3%
- clearance ([3]; intravenous injection, 1 mg/Kg): 4.36 mL/min/kg
- half-life ([3]; intravenous injection, 1 mg/Kg): 3.03 h
- AUC(0-t) ([3]; intravenous injection, 1 mg/Kg): 10 µM·h
- Vd ([3]; intravenous injection, 1 mg/Kg): 1.09 L/kg
- Cmax ([3]; oral gavage, 3 mg/Kg): 3.4 µM
- Tmax ([3]; oral gavage, 3 mg/Kg): 0.5 h
- AUC(0-t) ([3]; oral gavage, 3 mg/Kg): 16.7 µM·h
- EC50 [1]: 25.4 nM

Compound: C[C@H]1Cc2noc(-c3cscn3)c2CN1C(=O)Nc1cc(F)c(F)c(F)c1 [Example 15]
- EC50 [1]: 6.7 nM

Compound: C[C@H]1Cc2noc(-c3ccc(F)cc3F)c2CN1C(=O)Nc1ccc(F)c(C#N)c1 [Example 19]
- EC50 [1]: 10.4 nM

Compound: Cc1cc(NC(=O)N2Cc3c(noc3-c3ccc(F)cc3F)C[C@@H]2C)ccc1F [Example 21]
- EC50 [1]: 5.58 nM

Compound: C[C@H]1Cc2noc(-c3ccsn3)c2CN1C(=O)Nc1cc(F)c(F)c(F)c1 [Example 18]
- EC50 [1]: 12.2 nM

Compound: C[C@H]1Cc2noc(-c3cnccn3)c2CN1C(=O)Nc1cc(F)c(F)c(F)c1 [Example 13]
- EC50 [1]: 58.9 nM

Compound: C[C@H]1Cc2noc(-c3ccc(F)cc3F)c2CN1C(=O)Nc1ccc(F)c(Cl)c1 [Example 20]
- EC50 [1]: 8.66 nM

Compound: C[C@H]1Cc2noc(-c3ccc(F)cc3F)c2CN1C(=O)Nc1cc(F)c(F)c(F)c1 [Example 6]
- Log HBV DNA mean value (HBV [4]; liver tissue after 7 days of administration, solvent control 5.67): 3.09 copy number/μL
- Log HBV DNA mean value (HBV [4]; plasma, Day 1, solvent control 2.22, Log(LLOQ) = 1.60): 2.23 copy number/μL
- Log HBV DNA mean value (HBV [4]; plasma, Day 3, solvent control 4.51, Log(LLOQ) = 1.60): 1.74 copy number/μL
- Log HBV DNA mean value (HBV [4]; plasma, Day 5, solvent control 5.01, Log(LLOQ) = 1.60): 2.02 copy number/μL
- Log HBV DNA mean value (HBV [4]; plasma, Day 7, solvent control 3.30, Log(LLOQ) = 1.60): 1.85 copy number/μL
- F ([3]; oral gavage, 10 mg/Kg): 58.4%
- clearance ([3]; intravenous injection, 1 mg/Kg): 2.84 mL/min/kg
- half-life ([3]; intravenous injection, 1 mg/Kg): 9.31 h
- AUC(0-t) ([3]; intravenous injection, 1 mg/Kg): 11.4 µM·h
- Vd ([3]; intravenous injection, 1 mg/Kg): 2.33 L/kg
- Cmax ([3]; oral gavage, 10 mg/Kg): 4.94 µM
- Tmax ([3]; oral gavage, 10 mg/Kg): 0.5 h
- AUC(0-t) ([3]; oral gavage, 10 mg/Kg): 66.7 µM·h
- EC50 [1]: 4.9 nM

Compound: COc1cccc(-c2onc3c2CN(C(=O)Nc2cc(F)c(F)c(F)c2)[C@@H](C)C3)c1 [Example 8]
- EC50 [1]: 37.3 nM

Compound: C[C@H]1Cc2noc(-c3ccccc3F)c2CN1C(=O)Nc1cc(F)c(F)c(F)c1 [Example 3]
- EC50 [1]: 9 nM

Compound: C[C@H]1Cc2noc(-c3ccc(F)cc3F)c2CN1C(=O)Nc1ccnc(Cl)c1 [Example 22]
- EC50 [1]: 35.2 nM

Compound: C[C@H]1Cc2noc(-c3ncccn3)c2CN1C(=O)Nc1ccc(F)c(F)c1 [Example 26]
- EC50 [1]: 19.1 nM

Compound: C[C@H]1Cc2noc(-c3ncccn3)c2CN1C(=O)Nc1ccc(F)c(Cl)c1 [Example 24]
- EC50 [1]: 15.6 nM

Compound: C[C@H]1Cc2noc(-c3ccccc3)c2CN1C(=O)Nc1cc(F)c(F)c(F)c1 [Example 2]
- EC50 [1]: 29.3 nM

Compound: C[C@H]1Cc2noc(-c3ccc(F)cn3)c2CN1C(=O)Nc1cc(F)c(F)c(F)c1 [Example 1]
- F ([3]; oral gavage, 10 mg/Kg): 76.1%
- clearance ([3]; intravenous injection, 1 mg/Kg): 5.8 mL/min/kg
- half-life ([3]; intravenous injection, 1 mg/Kg): 5.62 h
- AUC(0-t) ([3]; intravenous injection, 1 mg/Kg): 6.71 µM·h
- Vd ([3]; intravenous injection, 1 mg/Kg): 2.77 L/kg
- Cmax ([3]; oral gavage, 10 mg/Kg): 4.26 µM
- Tmax ([3]; oral gavage, 10 mg/Kg): 1 h
- AUC(0-t) ([3]; oral gavage, 10 mg/Kg): 47.2 µM·h
- EC50 [1]: 5.3 nM

Compound: C[C@H]1Cc2noc(-c3ccc(Cl)cc3)c2CN1C(=O)Nc1cc(F)c(F)c(F)c1 [Example 12]
- EC50 [1]: 68.8 nM

Compound: C[C@H]1Cc2noc(-c3ccc(F)cc3)c2CN1C(=O)Nc1cc(F)c(F)c(F)c1 [Example 5]
- EC50 [1]: 24.7 nM

Source: patent US11572372B2, “Anti-HBVtetrahydroisoxazolo[4,3-c]pyridine compounds” (CHIA TAI TIANQING PHARMACEUTICAL GROUP CO., LTD., priority 2017, dated 2023)
